For one assay, the system named is HepG2 cells. As to conditions: cited from earlier work.
The next assay has as its system LOC100128443. As to conditions: human.
Another assay concerns the target T1, CHUK (Homo sapiens, UniProt O15111).
T1 sequence (O15111 1-745): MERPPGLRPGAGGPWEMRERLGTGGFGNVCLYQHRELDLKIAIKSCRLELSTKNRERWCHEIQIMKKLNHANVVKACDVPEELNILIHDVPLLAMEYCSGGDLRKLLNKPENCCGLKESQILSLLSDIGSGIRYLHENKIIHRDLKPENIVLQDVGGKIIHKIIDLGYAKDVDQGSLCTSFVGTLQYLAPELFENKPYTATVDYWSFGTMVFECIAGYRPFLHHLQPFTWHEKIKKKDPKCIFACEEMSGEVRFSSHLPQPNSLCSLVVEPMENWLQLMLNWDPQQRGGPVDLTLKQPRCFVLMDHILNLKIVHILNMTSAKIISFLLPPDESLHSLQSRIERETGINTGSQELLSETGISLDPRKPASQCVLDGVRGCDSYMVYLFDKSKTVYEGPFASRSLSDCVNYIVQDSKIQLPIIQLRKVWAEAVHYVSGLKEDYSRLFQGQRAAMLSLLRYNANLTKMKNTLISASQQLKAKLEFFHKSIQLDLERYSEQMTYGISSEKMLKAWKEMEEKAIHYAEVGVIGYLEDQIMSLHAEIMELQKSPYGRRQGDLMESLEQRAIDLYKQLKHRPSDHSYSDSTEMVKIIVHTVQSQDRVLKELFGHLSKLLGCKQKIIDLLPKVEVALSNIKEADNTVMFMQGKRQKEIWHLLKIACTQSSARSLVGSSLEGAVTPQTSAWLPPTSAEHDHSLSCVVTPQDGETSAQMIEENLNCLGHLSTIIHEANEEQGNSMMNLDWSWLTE
Put plainly: biochemical.

A further assay addresses T2, MAP2K5 (Homo sapiens, UniProt Q13163).
T2 sequence (Q13163 1-448): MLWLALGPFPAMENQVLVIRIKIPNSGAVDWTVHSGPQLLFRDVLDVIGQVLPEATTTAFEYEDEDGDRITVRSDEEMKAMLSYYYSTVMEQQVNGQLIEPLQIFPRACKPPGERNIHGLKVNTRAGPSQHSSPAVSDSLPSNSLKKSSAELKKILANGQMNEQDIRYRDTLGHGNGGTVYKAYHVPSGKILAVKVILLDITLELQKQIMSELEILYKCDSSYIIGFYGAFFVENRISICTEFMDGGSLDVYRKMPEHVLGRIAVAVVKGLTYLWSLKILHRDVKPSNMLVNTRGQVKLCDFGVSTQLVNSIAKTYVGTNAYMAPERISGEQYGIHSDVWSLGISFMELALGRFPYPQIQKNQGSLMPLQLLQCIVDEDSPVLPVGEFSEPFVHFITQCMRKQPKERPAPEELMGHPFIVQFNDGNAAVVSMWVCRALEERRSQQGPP
Put plainly: biochemical.

In the next assay the target is MAPK9 (Homo sapiens, UniProt P45984). Put plainly: biochemical.
Assay [1] addresses T3, NEK2 (Homo sapiens, UniProt P51955).
T3 sequence (P51955 1-445): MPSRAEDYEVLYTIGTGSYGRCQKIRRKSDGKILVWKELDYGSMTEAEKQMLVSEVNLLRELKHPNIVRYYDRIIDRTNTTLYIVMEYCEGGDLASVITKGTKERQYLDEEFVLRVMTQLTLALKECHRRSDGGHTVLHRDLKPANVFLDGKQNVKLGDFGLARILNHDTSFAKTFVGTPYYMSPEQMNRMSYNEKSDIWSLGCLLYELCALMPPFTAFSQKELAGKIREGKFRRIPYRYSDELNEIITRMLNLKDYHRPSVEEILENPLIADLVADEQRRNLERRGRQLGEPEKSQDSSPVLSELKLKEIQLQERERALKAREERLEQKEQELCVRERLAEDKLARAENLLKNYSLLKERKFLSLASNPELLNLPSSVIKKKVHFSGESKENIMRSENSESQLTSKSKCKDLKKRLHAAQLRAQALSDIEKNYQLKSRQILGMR
Put plainly: biochemical.

The target of a further assay is PIP5K3 (Homo sapiens, UniProt Q9Y2I7). Put plainly: biochemical.
The target in another assay is mTOR (Homo sapiens, UniProt P42345). Put plainly: biochemical.
Assay [2] concerns the target T3, NEK2. Put plainly: biochemical. Also on record: endogenous in cells; host or cells: K562 cell extract; species or system K562 (extract); replicate k of n = 2 (each experiment ID is one independent experiment; two experiment IDs per compound). As to conditions: read-out: KDapp.
In a further assay the target is T4, PIP4K2B (Homo sapiens, UniProt P78356).
T4 sequence (P78356 1-416): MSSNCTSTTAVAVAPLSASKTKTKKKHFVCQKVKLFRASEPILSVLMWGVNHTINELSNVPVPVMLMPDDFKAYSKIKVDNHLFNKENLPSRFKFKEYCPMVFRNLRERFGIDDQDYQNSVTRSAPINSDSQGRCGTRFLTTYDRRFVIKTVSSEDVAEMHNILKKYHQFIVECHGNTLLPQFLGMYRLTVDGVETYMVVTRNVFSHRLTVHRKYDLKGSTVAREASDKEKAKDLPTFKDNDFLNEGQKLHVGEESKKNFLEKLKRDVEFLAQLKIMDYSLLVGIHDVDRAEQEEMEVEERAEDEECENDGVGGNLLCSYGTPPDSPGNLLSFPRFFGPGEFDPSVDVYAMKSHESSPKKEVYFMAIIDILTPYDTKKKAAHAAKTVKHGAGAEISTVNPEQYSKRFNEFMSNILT
Put plainly: biochemical. Also noted: endogenous in cells; host or cells: K562 cell extract; species or system K562 (extract); replicate k of n = 2 (each experiment ID is one independent experiment; two experiment IDs per compound). The following applies: read-out: KDapp.

The target in a further assay is MAP4K4 (Homo sapiens, UniProt O95819). Put plainly: biochemical. As to conditions: read-out: KDapp. Also noted: endogenous in cells; host or cells: K562 cell extract; species or system K562 (extract); replicate k of n = 2 (each experiment ID is one independent experiment; two experiment IDs per compound).

Structures are written as SMILES. pIC50, pKd: −log10 of the molar value. Several values for one entry are separate records, joined by “and”; a condition that tells them apart may be missing. Equal entries are not always repeated. Where two headings read alike, the source gives them in different places.

PIP5K3, sequence (Q9Y2I7 whole entry): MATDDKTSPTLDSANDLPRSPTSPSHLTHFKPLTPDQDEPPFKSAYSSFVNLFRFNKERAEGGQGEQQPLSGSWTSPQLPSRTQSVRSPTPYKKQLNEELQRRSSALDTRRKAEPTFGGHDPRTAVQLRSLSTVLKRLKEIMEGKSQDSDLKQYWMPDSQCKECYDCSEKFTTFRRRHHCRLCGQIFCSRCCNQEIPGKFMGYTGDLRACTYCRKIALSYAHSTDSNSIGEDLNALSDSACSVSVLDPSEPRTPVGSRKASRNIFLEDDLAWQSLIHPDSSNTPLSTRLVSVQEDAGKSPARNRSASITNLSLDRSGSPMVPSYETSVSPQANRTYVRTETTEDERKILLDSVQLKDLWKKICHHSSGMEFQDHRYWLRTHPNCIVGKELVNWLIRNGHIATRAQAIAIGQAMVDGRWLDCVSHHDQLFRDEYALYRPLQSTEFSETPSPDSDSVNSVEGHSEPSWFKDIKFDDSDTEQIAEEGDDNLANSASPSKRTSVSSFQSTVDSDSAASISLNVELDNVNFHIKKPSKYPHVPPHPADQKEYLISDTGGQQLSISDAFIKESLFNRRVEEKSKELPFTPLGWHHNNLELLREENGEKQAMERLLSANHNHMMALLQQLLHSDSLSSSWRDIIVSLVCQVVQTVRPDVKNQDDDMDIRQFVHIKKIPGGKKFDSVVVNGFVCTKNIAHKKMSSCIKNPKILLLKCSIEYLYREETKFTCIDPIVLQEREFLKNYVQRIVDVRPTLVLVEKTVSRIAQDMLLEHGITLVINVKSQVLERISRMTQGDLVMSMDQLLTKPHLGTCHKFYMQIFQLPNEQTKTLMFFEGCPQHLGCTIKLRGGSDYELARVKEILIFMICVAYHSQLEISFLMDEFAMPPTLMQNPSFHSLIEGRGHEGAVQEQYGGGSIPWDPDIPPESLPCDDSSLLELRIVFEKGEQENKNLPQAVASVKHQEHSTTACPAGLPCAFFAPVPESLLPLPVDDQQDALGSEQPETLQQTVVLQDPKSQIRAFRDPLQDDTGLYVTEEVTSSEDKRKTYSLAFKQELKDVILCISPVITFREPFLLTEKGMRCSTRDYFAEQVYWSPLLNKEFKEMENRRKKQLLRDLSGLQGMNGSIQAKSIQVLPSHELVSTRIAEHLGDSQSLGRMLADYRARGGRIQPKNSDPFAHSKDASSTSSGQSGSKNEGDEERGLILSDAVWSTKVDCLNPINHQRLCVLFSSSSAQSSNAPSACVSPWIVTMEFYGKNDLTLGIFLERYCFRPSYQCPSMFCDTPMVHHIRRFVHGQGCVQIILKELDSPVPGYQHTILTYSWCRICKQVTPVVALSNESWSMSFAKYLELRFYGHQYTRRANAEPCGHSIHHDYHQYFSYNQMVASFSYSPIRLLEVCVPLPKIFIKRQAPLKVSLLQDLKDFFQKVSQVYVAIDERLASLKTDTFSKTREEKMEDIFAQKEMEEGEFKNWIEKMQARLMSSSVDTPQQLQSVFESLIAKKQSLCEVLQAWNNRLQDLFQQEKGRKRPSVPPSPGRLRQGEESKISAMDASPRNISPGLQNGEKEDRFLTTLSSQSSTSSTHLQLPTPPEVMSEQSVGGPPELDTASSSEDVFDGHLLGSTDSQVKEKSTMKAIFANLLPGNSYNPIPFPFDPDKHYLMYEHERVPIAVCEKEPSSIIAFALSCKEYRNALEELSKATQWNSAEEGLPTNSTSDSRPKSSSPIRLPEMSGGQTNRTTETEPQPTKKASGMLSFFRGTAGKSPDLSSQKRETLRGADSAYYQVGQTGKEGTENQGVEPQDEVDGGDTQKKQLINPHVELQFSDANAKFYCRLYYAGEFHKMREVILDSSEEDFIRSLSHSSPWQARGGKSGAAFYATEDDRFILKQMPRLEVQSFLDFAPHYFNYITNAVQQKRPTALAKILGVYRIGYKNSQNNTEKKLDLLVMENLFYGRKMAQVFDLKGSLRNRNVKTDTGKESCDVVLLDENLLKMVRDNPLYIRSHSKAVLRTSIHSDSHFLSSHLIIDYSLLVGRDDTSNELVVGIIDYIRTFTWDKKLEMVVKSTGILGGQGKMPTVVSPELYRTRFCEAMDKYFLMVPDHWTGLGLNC
MAP4K4, sequence (O95819 whole entry): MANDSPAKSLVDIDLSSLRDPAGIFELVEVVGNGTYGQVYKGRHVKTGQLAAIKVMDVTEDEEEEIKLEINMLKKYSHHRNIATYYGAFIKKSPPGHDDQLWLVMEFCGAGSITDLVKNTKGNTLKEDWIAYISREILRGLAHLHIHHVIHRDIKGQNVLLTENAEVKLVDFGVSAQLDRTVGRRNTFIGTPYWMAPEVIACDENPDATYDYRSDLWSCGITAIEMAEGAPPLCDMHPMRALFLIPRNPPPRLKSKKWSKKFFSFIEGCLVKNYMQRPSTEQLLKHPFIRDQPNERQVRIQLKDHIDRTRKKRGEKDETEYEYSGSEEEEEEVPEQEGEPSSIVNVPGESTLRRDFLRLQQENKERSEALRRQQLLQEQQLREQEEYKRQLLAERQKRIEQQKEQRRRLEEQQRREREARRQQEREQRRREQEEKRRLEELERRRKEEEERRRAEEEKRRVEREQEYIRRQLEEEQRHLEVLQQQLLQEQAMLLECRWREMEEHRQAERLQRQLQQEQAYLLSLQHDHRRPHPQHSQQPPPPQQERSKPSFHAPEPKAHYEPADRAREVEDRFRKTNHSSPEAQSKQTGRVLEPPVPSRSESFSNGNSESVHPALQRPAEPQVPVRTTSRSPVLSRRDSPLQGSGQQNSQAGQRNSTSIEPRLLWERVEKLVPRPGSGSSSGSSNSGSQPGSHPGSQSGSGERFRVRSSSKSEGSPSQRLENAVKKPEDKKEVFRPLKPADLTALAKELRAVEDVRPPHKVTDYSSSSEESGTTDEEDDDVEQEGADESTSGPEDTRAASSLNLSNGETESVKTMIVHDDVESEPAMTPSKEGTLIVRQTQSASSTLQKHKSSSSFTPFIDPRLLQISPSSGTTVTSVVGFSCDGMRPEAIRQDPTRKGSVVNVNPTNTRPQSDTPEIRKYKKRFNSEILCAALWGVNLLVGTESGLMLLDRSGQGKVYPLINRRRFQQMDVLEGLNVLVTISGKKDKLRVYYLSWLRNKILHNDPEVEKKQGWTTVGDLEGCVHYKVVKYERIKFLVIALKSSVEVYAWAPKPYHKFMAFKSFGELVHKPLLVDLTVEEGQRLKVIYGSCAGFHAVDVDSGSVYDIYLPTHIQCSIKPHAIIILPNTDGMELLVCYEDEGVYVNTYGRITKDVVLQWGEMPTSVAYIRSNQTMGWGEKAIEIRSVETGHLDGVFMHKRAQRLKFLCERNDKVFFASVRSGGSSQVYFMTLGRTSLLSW
MAPK9, sequence (P45984 whole entry): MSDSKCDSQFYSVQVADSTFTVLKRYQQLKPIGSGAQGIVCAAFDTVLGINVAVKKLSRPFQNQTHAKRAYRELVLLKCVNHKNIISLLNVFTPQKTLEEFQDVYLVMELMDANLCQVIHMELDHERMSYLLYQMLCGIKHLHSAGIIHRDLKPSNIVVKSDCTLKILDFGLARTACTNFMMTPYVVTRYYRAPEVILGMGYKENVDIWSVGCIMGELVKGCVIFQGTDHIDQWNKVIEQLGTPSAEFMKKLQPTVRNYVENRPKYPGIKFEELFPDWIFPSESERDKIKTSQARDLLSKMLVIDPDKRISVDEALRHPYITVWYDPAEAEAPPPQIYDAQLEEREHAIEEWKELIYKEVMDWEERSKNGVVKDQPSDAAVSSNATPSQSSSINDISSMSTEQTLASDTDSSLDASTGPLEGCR

A word on the pIC50: it is −log10 of the IC50, conventionally taken in molar units. Read a high pIC50 as a low IC50. Regarding `CN1CCN(c2ccc(Nc3ncc(C#N)c(Nc4ccccc4C(N)=O)n3)cc2)CC1.Cl` [TCMDC-134116], in the assay with HepG2 cells, the “Inhibition of HepG2 cell growth at 10 μM” value was 43%. Further, in the assay on HepG2 cells (HepG2, downloaded from ChEMBL, ref F.J. Gamo et al., Nature 2010), the PCT_INHIB_HEPG2 was 43%. The pIC50 in the assay on LOC100128443 was 6.48; at CHUK, below 4.70; on MAP2K5 it was 6.40 and 6.28; against MAPK9 it was 5.96 and 6.00; against NEK2 [1], 6.24 and 6.60; on PIP5K3, 5.89 and 5.82. The same compound had a negative-log IC50 (pIC50) at mTOR below 4.70. For the same compound, the pKd is 6.57 and 6.93 on NEK2 [2]; 5.95 and 6.15 on PIP4K2B.
On to `Cl.NCC1(c2nc(-c3ccc(Cl)c(O)c3)c(-c3ccncc3)[nH]2)CCCCC1` [TCMDC-141154], for which the “Inhibition of HepG2 cell growth at 10 μM” value with HepG2 cells is listed as 48%. The PCT_INHIB_HEPG2 in the assay with HepG2 cells (HepG2 cells, downloaded from ChEMBL ref F.J. Gamo et al., Nature 2010) is given as 48. For the same compound, the pIC50 with LOC100128443 is below 4.70; on CHUK, below 4.70; at MAP2K5 it was 6.06; against MAPK9 it was 5.77; against NEK2 [1] it was below 4.70; at PIP5K3, 6.00. This compound also gave a negative logarithm of the IC50 (pIC50) at mTOR below 4.70. The pKd on MAP4K4 is 6.07 and 6.27.
On to `CN(C)CC(O)COc1ccc(Nc2ncc([N+](=O)[O-])c(Nc3ccccc3O)n2)cc1.O=C(O)C(F)(F)F` (stereo not drawn) [TCMDC-141399], for which the “Inhibition of HepG2 cell growth at 10 μM” value in the assay on HepG2 cells is recorded as 47%. Besides, the PCT_INHIB_HEPG2 in the assay with HepG2 cells (HepG2 cells, ref ChEMBL) is reported as 47. Further, the pIC50 in the assay with LOC100128443 was below 4.70; against CHUK, below 4.70; against MAP2K5 it was below 4.70; at MAPK9, below 4.70; against NEK2 [1], 5.19 and 5.38; on PIP5K3 it was 5.12 and 5.28. For the same compound, the pIC50 on mTOR is below 4.70. Further, the pKd on MAP4K4 is 5.99 and 6.17; on NEK2 [2], 5.51 and 5.70; at PIP4K2B, 6.17 and 6.01.

The record behind these values is publication PMC4774911, “Biochemical Screening of Five Protein Kinases from Plasmodium falciparum against 14,000 Cell-Active Compounds” (PLoS ONE, 2016).
